From patent publication US20250049970A1, “DLL3 TARGETING PEPTIDES AND CONSTRUCTS THEREOF” (MARIANA ONCOLOGY INC., priority 2023, published 2025)
pKd: −log10 of the molar value. *1 amine or outer side, *2 acyl side, *3 side chain or, on linkers, in order; H or OH if unused. Where a SMILES comes first, the peptide text is derived from it. Bridges are numbered along the chain shown (N, C = ends). Roman numbers before positions name the chains, in order. Side-chain parts run from the residue outwards. [ ]: non-standard residue; d: D form. The star is where a group is joined. X7 = O=C(O)CN1CCN(CC(=O)O)CCN(CC(=O)N[C@H]2CC[C@H](CC(=O)*)CC2)CCN(CC(=O)O)CC1; X11 = O=C(O)CN1CCN(CC(=O)O)CCN(CC(=O)NCCCOCCOCCOCCCN*)CCN(CC(=O)O)CC1; Ala(piperidin-4-yl) = O=C([C@H](CC1CCN([*:3])CC1)N[*:1])[*:2]; DOTA = O=C(O)CN1CCN(CC(=O)O)CCN(CC(=O)*)CCN(CC(=O)O)CC1; Phe(4-CF3) = N[C@@H](Cc1ccc(C(F)(F)F)cc1)C(=O)O; Trp(1-Me) = Cn1cc(C[C@H](N)C(=O)O)c2ccccc21; Phe(4-F) = N[C@@H](Cc1ccc(F)cc1)C(=O)O; 2Nal = N[C@@H](Cc1ccc2ccccc2c1)C(=O)O; mXylylene = c1cc(C[*:1])cc(C[*:2])c1; tBuAla = CC(C)(C)C[C@H](N)C(=O)O; Cba = N[C@@H](CC1CCC1)C(=O)O; Chg = N[C@H](C(=O)O)C1CCCCC1; Suc = O=C(CCC(=O)[*:2])[*:1]; CH2 = C([*:1])[*:2]

Target: T1, DLL3 (Homo sapiens, UniProt Q9NYJ7)
T1 sequence (Q9NYJ7 27-618): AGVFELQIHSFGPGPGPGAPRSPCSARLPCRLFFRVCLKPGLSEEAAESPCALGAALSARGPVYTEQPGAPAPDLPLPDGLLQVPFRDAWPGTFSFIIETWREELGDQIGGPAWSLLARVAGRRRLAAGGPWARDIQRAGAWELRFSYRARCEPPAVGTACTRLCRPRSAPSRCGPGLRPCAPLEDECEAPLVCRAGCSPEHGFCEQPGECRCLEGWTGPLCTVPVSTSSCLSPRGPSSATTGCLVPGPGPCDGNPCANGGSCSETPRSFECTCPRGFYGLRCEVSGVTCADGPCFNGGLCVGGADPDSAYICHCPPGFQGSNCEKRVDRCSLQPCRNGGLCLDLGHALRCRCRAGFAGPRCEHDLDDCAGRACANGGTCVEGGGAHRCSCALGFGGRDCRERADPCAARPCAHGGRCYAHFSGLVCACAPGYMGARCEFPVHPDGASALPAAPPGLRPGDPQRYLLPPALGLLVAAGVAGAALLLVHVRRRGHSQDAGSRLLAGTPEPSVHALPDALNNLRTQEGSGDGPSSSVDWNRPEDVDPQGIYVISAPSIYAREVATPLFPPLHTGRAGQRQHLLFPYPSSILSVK
Assay: SPR KD, biotinylated human DLL3 on streptavidin chip (Table 8)
Set-up: biotin (biotinylated)
Conditions: SPR KD, biotinylated human DLL3 on streptavidin sensor chip, 25° C., 1:1 binding model
Text: Biotinylated target ligand human DLL3 was immobilized on a streptavidin sensor chip. A reference surface was set up for nonspecific binding and refractive index changes. […] Sensorgram curves were fitted with 1:1 binding model, and affinity and kinetic parameters were obtained using Biacore Insight evaluation 4.0. software.

SMILES | pKd
CC(=O)N[C@@H](Cc1c[nH]c2ccccc12)C(=O)N[C@H](C(=O)N[C@H](C(=O)N[C@H]1CSSC[C@@H](C(=O)N[C@@H](Cc2c[nH]c3ccccc23)C(=O)N2CCC[C@H]2C(N)=O)NC(=O)[C@H](CC(=O)O)NC(=O)[C@H](CCCCNC(=O)CNC(=O)[C@H](CO)NC(=O)CNC(=O)[C@H](CO)NC(=O)CNC(=O)[C@H](CO)NC(=O)CN2CCN(CC(=O)O)CCN(CC(=O)O)CCN(CC(=O)O)CC2)NC(=O)[C@H](Cc2ccc3ccccc3c2)NC(=O)[C@H](CC(N)=O)NC(=O)[C@H](CC2CCNCC2)NC1=O)C1CCCCC1)[C@@H](C)O [compound 407, Ac-W-T-(Chg)-C(3)-[3-(4-piperidinyl)-Ala]-N-(2Nal)-Lys(G-S-G-S-G-S-DOTA)-D-C(3)-W-P-CONH2] (I: Ac-WT[Chg]C[Ala(piperidin-4-yl)]N[2Nal]KDCWP-NH2 / II: {DOTA}-SGSGSG; disulfide I:4-I:10; amide I:8-II:C) | > 9.00

Same assay, conditions: biotinylated human DLL3 on streptavidin sensor chip, 25° C., 1:1 binding model; read-out: SPR KD

SMILES | pKd
CC(=O)N[C@@H](Cc1c[nH]c2ccccc12)C(=O)N[C@H](C(=O)N[C@H](C(=O)N[C@H]1CSCc2cccc(c2)CSC[C@@H](C(=O)N[C@@H](Cc2c[nH]c3ccccc23)C(=O)N2CCC[C@H]2C(N)=O)NC(=O)[C@H](CC(=O)O)NC(=O)[C@H](CCCCNC(=O)CN2CCN(CC(=O)O)CCN(CC(=O)O)CCN(CC(=O)O)CC2)NC(=O)[C@H](Cc2ccc3ccccc3c2)NC(=O)[C@H](CC(N)=O)NC(=O)[C@H](CC2CCNCC2)NC1=O)C1CCCCC1)[C@@H](C)O [compound 402, Ac-W-T-(Chg)-C(mDBX)-[3-(4-piperidinyl)-Ala]-N-(2Nal)-Lys(DOTA)-D-C(3)-W-P-CONH2] (Ac-WT[Chg]C[Ala(piperidin-4-yl)]N[2Nal]K(DOTA)DCWP-NH2; linker 4-10 via mXylylene) | 6.52 to 7.00
CC(=O)N[C@@H](Cc1c[nH]c2ccccc12)C(=O)N[C@H](C(=O)N[C@H](C(=O)N[C@H]1CSCSC[C@@H](C(=O)N[C@@H](Cc2c[nH]c3ccccc23)C(=O)N2CCC[C@H]2C(N)=O)NC(=O)[C@H]([C@@H](C)O)NC(=O)[C@H](CCCCNC(=O)CN2CCN(CC(=O)O)CCN(CC(=O)O)CCN(CC(=O)O)CC2)NC(=O)[C@H](Cc2ccc3ccccc3c2)NC(=O)[C@H](CC(N)=O)NC(=O)[C@H](CC2CCNCC2)NC1=O)C1CCCCC1)[C@@H](C)O [compound 399, Ac-W-T-(Chg)-C(1)-[3-(4-piperidinyl)-Ala]-N-(2Nal)-Lys(DOTA)-(Thr)-C(1)-W-P-CONH2] (Ac-WT[Chg]C[Ala(piperidin-4-yl)]N[2Nal]K(DOTA)TCWP-NH2; linker 4-10 via CH2) | > 9.00
CC[C@H](C)[C@H](NC(=O)[C@@H](NC(=O)[C@H](Cc1c[nH]c2ccccc12)NC(=O)[C@H](CCSC)NC(C)=O)[C@@H](C)O)C(=O)N[C@H]1CSSC[C@@H](C(=O)N[C@@H](Cc2c[nH]c3ccccc23)C(=O)N2CCC[C@H]2C(N)=O)NC(=O)[C@H](CC(=O)O)NC(=O)[C@H](Cc2cnc[nH]2)NC(=O)[C@H](Cc2c[nH]c3ccccc23)NC(=O)[C@@H](C)NC(=O)[C@H](CC(N)=O)NC1=O [compound 39, Ac-M-W-T-I-C(3)-N-(D-Ala)-W-H-D-C(3)-W-P-CONH2] (Ac-MWTICN[dA]WHDCWP-NH2; disulfide 5-11) | 7.00 to 8.00
CC(=O)N[C@@H](Cc1c[nH]c2ccccc12)C(=O)N[C@H](C(=O)N[C@H](C(=O)N[C@H]1CSSC[C@@H](C(=O)N[C@@H](Cc2c[nH]c3ccccc23)C(=O)N2CCC[C@H]2C(N)=O)NC(=O)[C@H](CC(=O)O)NC(=O)[C@H](CCCCNC(=O)CNC(=O)CNC(=O)CCC(=O)NCCCOCCOCCOCCCNC(=O)CN2CCN(CC(=O)O)CCN(CC(=O)O)CCN(CC(=O)O)CC2)NC(=O)[C@H](Cc2ccc3ccccc3c2)NC(=O)[C@H](CC(N)=O)NC(=O)[C@H](CC2CCNCC2)NC1=O)C1CCCCC1)[C@@H](C)O [compound 406, Ac-W-T-(Chg)-C(3)-[3-(4-piperidinyl)-Ala]-N-(2Nal)-Lys(G-G-TTDS-DOTA)-D-C(3)-W-P-CONH2] (Ac-WT[Chg]C[Ala(piperidin-4-yl)]N[2Nal]K([Gly-Gly-Suc-X11])DCWP-NH2; disulfide 4-10) | > 9.00
CC(=O)N[C@@H](Cc1c[nH]c2ccccc12)C(=O)N[C@H](C(=O)N[C@@H](CC(C)(C)C)C(=O)N[C@H]1CSCSC[C@@H](C(=O)N[C@@H](Cc2c[nH]c3ccccc23)C(=O)N2CCC[C@H]2C(N)=O)NC(=O)[C@H](CC(=O)O)NC(=O)[C@H](CCCCNC(=O)C[C@H]2CC[C@H](NC(=O)CN3CCN(CC(=O)O)CCN(CC(=O)O)CCN(CC(=O)O)CC3)CC2)NC(=O)[C@H](Cc2ccc3ccccc3c2)NC(=O)[C@H](CC(N)=O)NC(=O)[C@H](CC2CCNCC2)NC1=O)[C@@H](C)O [compound 434, Ac-W-T-(t-Bu-Ala)-C(3)-[3-(4-piperidinyl)-Ala]-N-(2Nal)-Lys(Chx-DOTA)-D-C(3)-W-P-NH2] (Ac-WT[tBuAla]C[Ala(piperidin-4-yl)]N[2Nal]K(X7)DCWP-NH2; linker 4-10 via CH2) | > 9.00

Now from value to compound:

pKd | SMILES
7.00 to 8.00 | CC[C@H](C)[C@H](NC(=O)[C@@H](NC(=O)[C@H](Cc1cn(C)c2ccccc12)NC(=O)[C@H](CCSC)NC(C)=O)[C@@H](C)O)C(=O)N[C@H]1CSSC[C@@H](C(=O)N[C@@H](Cc2c[nH]c3ccccc23)C(=O)N2CCC[C@H]2C(N)=O)NC(=O)[C@H](CC(=O)O)NC(=O)[C@H](Cc2cnc[nH]2)NC(=O)[C@H](Cc2c[nH]c3ccccc23)NC(=O)[C@H](CC(N)=O)NC(=O)[C@H](CC(N)=O)NC1=O [compound 41, Ac-M-(1Me-W)-T-I-C(3)-N-N-W-H-D-C(3)-W-P-CONH2] (Ac-M[Trp(1-Me)]TICNNWHDCWP-NH2; disulfide 5-11)
8.00 to 9.00 | CC[C@H](C)[C@H](NC(=O)[C@@H](NC(=O)[C@H](Cc1c[nH]c2ccccc12)NC(C)=O)[C@@H](C)O)C(=O)N[C@H]1CSSC[C@@H](C(=O)N[C@@H](Cc2c[nH]c3ccccc23)C(=O)N2CCC[C@H]2C(N)=O)NC(=O)[C@H](CC(=O)O)NC(=O)[C@H](Cc2c[nH]cn2)NC(=O)[C@H](Cc2ccc(C(F)(F)F)cc2)NC(=O)[C@H](CC(N)=O)NC(=O)[C@H](CC(N)=O)NC1=O [compound 50, Ac-W-T-I-C(3)-N-N-(4CF3-F)-H-D-C(3)-W-P-CONH2] (Ac-WTICNN[Phe(4-CF3)]HDCWP-NH2; disulfide 4-10)
8.00 to 9.00 | CC(=O)N[C@@H](Cc1c[nH]c2ccccc12)C(=O)N[C@H](C(=O)N[C@@H](CC1CCC1)C(=O)N[C@H]1CSSC[C@@H](C(=O)N[C@@H](Cc2c[nH]c3ccccc23)C(=O)N2CCC[C@H]2C(N)=O)NC(=O)[C@H](CC(=O)O)NC(=O)[C@H](Cc2cnc[nH]2)NC(=O)[C@H](Cc2c[nH]c3ccccc23)NC(=O)[C@H](CC(N)=O)NC(=O)[C@H](CC(N)=O)NC1=O)[C@@H](C)O [compound 341, Ac-W-T-(CBA)-C(3)-N-N-W-H-D-C(3)-W-P-CONH2] (Ac-WT[Cba]CNNWHDCWP-NH2; disulfide 4-10)
7.00 to 8.00 | CC[C@H](C)[C@H](NC(=O)[C@@H](NC(=O)[C@H](Cc1c[nH]c2ccccc12)NC(C)=O)[C@@H](C)O)C(=O)N[C@H]1CSSC[C@@H](C(=O)N[C@@H](Cc2ccc(F)cc2)C(=O)N2CCC[C@H]2C(N)=O)NC(=O)[C@H](CC(=O)O)NC(=O)[C@H](Cc2c[nH]cn2)NC(=O)[C@H](Cc2c[nH]c3ccccc23)NC(=O)[C@H](CC(N)=O)NC(=O)[C@H](CC(N)=O)NC1=O [compound 52, Ac-W-T-I-C(3)-N-N-W-H-D-C(3)-(4Fluoro-F)-P-CONH2] (Ac-WTICNNWHDC[Phe(4-F)]P-NH2; disulfide 4-10)
